{"source": "patent US20240408071A1", "about": "“NOVEL COMBINATION OF SEROTONIN RECEPTOR (5-HTR2B) ANTAGONIST AND AN IMMUNOMODULATOR AND CHEMOTHERAPEUTIC DRUGS FOR INHIBITION OF CANCER” (NATIONAL CENTRE FOR CELL SCIENCE, priority 2021, published 2024)", "key": {"[1]": {"tested_on": "PD-L1", "test": "Serum PD-L1 ELISA in MC38 tumor-bearing mice", "assay_type": "in vivo, C57BL/6J mice", "settings": "MC38-induced colon tumor-bearing mice, SSRI treatment", "procedure": "FIG. 13 depicts 5-HTR2B signaling promotes PD-L1 expression on the MC38 cell line in vitro: (A-B) MC38 cells are treated with 5-HTR2B agonist (BW-723C86-50 μM), serotonin (100 μM), and 5-HTR2B antagonist (RS-127445-50 μM) for 72 hours, and the PD-L1 expression was checked by flow cytometry and the percentage of PD-L1^+ MC38 cells was plotted. (C-D) MFI of PD-L1 from the above experiment were plotted as histogram overlay (C) or as statistical data points (D). (E) Relative PD-L1 mRNA expression in MC38 cells following BW-723C86 and RS-127445 treatment for 48 hours. Here the values are shown as a fold change as compared to control MC38 cells. […] All the statistical analysis was performed using either Student's ‘t’ test or two-way ANOVA using Sidak's multiple comparison test. *P<0.05; **P<0.01; […]; ****P<0.0001 Error bar represents mean±standard error of means (SEM).\n(§1) Universal competitive serotonin ELISA kit was purchased from Novus biological (Catalog #NBP2-68127), and ELISA was performed according to the manufacturer's protocol. Mouse PD-L1 DuoSet ELISA kit was procured from the R&D System (Catalog #DY1019-05), and the ELISA was performed according to the manufacturer's guidelines.\nTo understand it, investigations were done on whether 5-HTR2B signaling also affects the surface expression of molecules that alters inflammatory and cytotoxic immune cells. Among different molecules, PD-L1 is of particular interest as it is an immune checkpoint ligand that affects cytotoxic T-cell responses toward cancer. […] (FIG. 13F)."}, "[2]": {"tested_on": "MC38 colon cancer cells", "test": "MC38 colon tumor growth (tumor volume) in C57BL/6 mice", "assay_type": "in vivo", "settings": "sertraline hydrochloride 15 mg/kg/week (FIG. 7C)", "quoted_text": "Tumor volumes were measured and plotted. (B) MC38 colon cancer cells were injected subcutaneously into the right flank of C57BL/6 mice. After seven days when tumors became palpable, one group was treated with 5-HTR7 antagonist SB-269970 (n=6 mice; 3 mg/kg/day) or left untreated (n=6 mice). Tumor volume was measured and plotted. (C) After seven days of the setting of tumor growth, one group was treated with a serotonin transporter blocker (SSRI) sertraline hydrochloride (n=6 mice; 15 mg/kg/week) or left untreated (n=6 mice). Tumor volume was measured and plotted. (D) C57BL/6 mice were given subcutaneously injected MC38 cells. After seven days of tumor growth, one group of mice was treated with different doses of 5-HTR2B antagonist SB-215505 (n=6). Tumor volume was measured and plotted. (E) C57BL/6 mice were given subcutaneously injected MC38 cells. After seven days of the tumor growth, one group of mice was treated with different doses of 5-HTR2B antagonist SB-215505 (n=6), one group treated with 5-HTR2B agonist BW-723C86 (n=6; 4 mg/kg/day). Tumor volume was measured and plotted. (F) MC38 cells were subcutaneously injected into C57BL/6 mice. After seven days when the tumor became palpable in mice, one group of mice was treated with FDA-approved 5-HTR2B antagonist cariprazine (Carispec; Sun pharma) via oral gavage (n=5 mice; dose 5 mg/kg body weight/day) or left untreated (n=5 mice). Tumor growth was measured and plotted. […] All the statistical analysis was performed using Student's ‘t’ test or two-way ANOVA using Sidak's multiple comparison test. *P<0.05; **P<0.01; ***P<0.00; ****P<0.0001 Error bar represents mean±standard error of means (SEM)."}, "[3]": {"tested_on": "serotonin", "test": "Serum serotonin level in MC38 colon tumor-bearing mice", "assay_type": "in vivo", "settings": "MC38-induced colon tumor-bearing mice, SSRI treatment", "procedure": "This secretory variant of PD-L1 is responsible for most of the resistance to the anti-PD-L1 therapy in the tumor.\nas §1"}}, "data": [{"compound": "CN[C@H]1CC[C@@H](c2ccc(Cl)c(Cl)c2)c2ccccc21", "note": "[sertraline]", "values": [{"measurement": "secretory PD-L1 variant level in the serum", "setting": "[1]", "result": "enhanced the secretory PD-L1 variant level in the serum"}, {"measurement": "MC38 tumor growth", "setting": "[2]", "result": "promotes MC38 tumor growth"}, {"measurement": "free serotonin level in the serum", "setting": "[3]", "result": "increased free serotonin level in the serum"}]}]}
